According to patent publication US10487117B2, “Antimicrobial peptide for nosocomial infections” (priority 2015, dated 2019):
Values joined by “and” are separate entries in the source; they are usually repeats but may differ in a detail not shown here. Equal values may be shown once. Residues, ends and D or L forms follow the SMILES beside them.

B1: RNase 3: Recombinant human RNase 3, also known as eosinophil cationic protein (ECP), parental protein of the peptide (protein, UniProt P12724 28-160, looked up)
Eosinophil cationic protein: RPPQFTRAQWFAIQHISLNPPRCTIAMRAINNYRWRCKNQNTFLRTTFANVVNVCGNQSIRCPHNRTLNNCHRSRFRVPLLHCDLINPGAQNISNCTYADRPGRRFYVVACDNRDPRDSPRYPVVPVHLDTTI

What was measured:
[1] = tested on: established P. aeruginosa biofilms; experiment: SYTOX Green membrane permeabilization assay on biofilm; format: cell-based, Pseudomonas aeruginosa; conditions: maximum percentage at final incubation time, 10% Triton X-100 reference
Procedure: (§1) Membrane permeabilization was followed using the method SYTOX Green Fluorescence membrane permeabilization assay. In the planktonic assay, bacterial cells were grown at 37° C. to an OD600=0.2, centrifuged at 5000×g for 5 min, and resuspended in 1×PBS to an OD600=0.2. An aliquot of 200 μl was then transferred to a microtiter plate. For biofilm assay, 24 h formed P. aeruginosa biofilm in a 96-well microtiter plate were washed three times with sterile PBS. SYTOX Green was added to a final concentration of 1 μM and incubated 15 min in darkness. Changes in the fluorescence were continuously recorded after addition of a serially diluted protein/peptides from 50 to 0.1 μM in a Victor3 plate reader. The peptide concentration required to achieve half of total and total membrane permeabilization achieved after 40 min was estimated from nonlinear regression analysis as previously described (Pulido D. et al. Antimicrob Agents Chemother 2013). A maximum reference value was taken for Triton X-100 at 10%.
(§2) Thereupon, the antimicrobial mechanism of action of the RNase 3 derived peptide on P. aeruginosa biofilms was further characterized with the depolarization and permeabilization assays. As applied for the P. aeruginosa planktonic culture, the fluorescent DisC3(5) assay was also used here in order to monitor the depolarization activity of the studied protein and peptides against established biofilms. Therefore, we have measured the half depolarization action (ED50), and the total depolarization activity expressed as a percentage (Table 7). […] Similar results were obtained for the Sytox Green permeabilization assay, where the total permeabilization effect was hindered for all the AMPs tested, and between two to ten times higher concentrations were required to achieve half of the biofilm cell permeabilizing effect in comparison to the planktonic cells.

planktonic P. aeruginosa [2] = experiment: SYTOX Green membrane permeabilization assay, planktonic; format: cell-based, Pseudomonas aeruginosa; conditions: 10% Triton X-100 as maximum reference
Procedure: Further insight into the membrane-permeabilizing effect of the selected AMPs against P. aeruginosa was evaluated by the Sytox Green assay. Local membrane disturbances allow the cell uptake of the fluorescent Sytox Green dye that subsequently stains the cell nucleic acids; the fluorescence increase is registered to monitor the cell membrane permeabilization. Therefore, the half permeabilization action (ED50) was measured, and the total permeabilization activity expressed as a percentage (Table 5). […] On the other hand, WY-12 and CA-M required a 6- to 7-fold greater concentration than RNase 3 to produce half of their permeabilizing effect.
as §1

[3] = Biofilm cell mortality, BacTiter-Glo luminescent assay; format: cell-based, Pseudomonas aeruginosa; conditions: 24 h formed biofilm; 4 h at 37° C.; 10% Triton X-100 as maximum reference; N.D. = not detected at 50 μM; read-out: Biofilm cell mortality (%max)
Procedure: (§3) Bacterial viability was assayed using the BacTiter-Glo™ microbial cell viability kit. Briefly, protein/peptides were dissolved in 10 mM sodium phosphate, 0.1M buffer, pH 7.5, serially diluted from 50 to 0.1 μM and tested in a 96-well microtiter plate containing P. aeruginosa planktonic (OD600˜0.2) or 24 h formed biofilm for 4 h at 37° C. Fifty microliters of BacTiter-Glo™ reagent was added to each well according to the manufacturer's instructions and incubated at room temperature for 15 min. Luminescence was read on a Victor3 plate reader with a 3-s integration time. Fifty percent (ED50) and total inhibitory concentrations were calculated by fitting the data to a dose-response curve.
(§4) As a first approach, the biofilm cell viability was monitored using the BacTiter-Glo™ luminescent assay. Therefore, the antimicrobial action of the studied AMPs was determined on already established P. aeruginosa biolfilms (FIG. 1 and Table 6). […] However, for all the active peptides, the concentrations needed to produce an equivalent effect in biofilms were between 2 to 10 times higher than in planktonic cultures. […] At the same time, we applied the crystal violet technique to assess the peptide ability to disperse pre-established P. aeruginosa biofilms.
(§5) Biofilm formation assay was modified from the previously described protocol (Huedo P. et al. 2014). Briefly, overnight cultures of P. aeruginosa were centrifuged at 5000×g for 5 min, washed and adjusted to an OD600=0.1 in tryptic soy medium (TSB). Two hundred microliters of the bacterial suspension were dispensed in each well of a polystyrene 96-well microtiter plate (Greiner Bio-one, France). The plate was incubated at 37° C. on an orbital shaker (30 rpm). The media was exchanged with fresh pre-warmed TSB after 4 h, in order to remove the non-attached bacteria. After 24 h incubation, the formation of biofilm was then evaluated using the crystal violet staining technique (Stepanovic S. et al. 2000). Briefly, the plates were washed three times with PBS, fixed at 60° C. for 1 h, and stained for 15 min with 200 μl of 0.1% crystal violet. After the dye was discarded, plates were rinsed in PBS and allowed to dry for 30 min at 37° C. Crystal violet was dissolved in 250 μl of 95% ethanol for 15 min, and the OD570 of the extracted dye was measured using a Victor3 plate reader (Perkin-Elmer, Waltham, Mass.).

planktonic P. aeruginosa [4] = experiment: DiSC3(5) cytoplasmic membrane depolarization assay, planktonic; format: cell-based, Pseudomonas aeruginosa; conditions: 10% Triton X-100 as maximum reference
Procedure: To further investigate the antimicrobial mechanism of action of the peptide, its ability to depolarize P. aeruginosa membranes was evaluated. Depolarization activity was analyzed by the DiSC3(5) assay (Table 5). DiSC3(5) is a fluorescent probe, which is sensitive to membrane potential. The DiSC3(5) fluorescence is quenched upon interaction with intact cell membranes. When the membrane potential is lost, the probe is released to the medium, resulting in an increase of fluorescence that can be recorded as a function of peptide concentration. Thus, the half depolarization action (ED50) was evaluated, defined as the peptide concentration needed to achieve a half-depolarization effect, and the total depolarization activity at final incubation time (Table 3).
(§6) Membrane depolarization was followed using the method described earlier (Torrent M. et al. 2008). Briefly, bacterial cells were grown at 37° C. to an OD600=0.2, centrifuged at 5000×g for 7 min, washed with 5 mM Hepes at pH 7.2 containing 20 mM glucose, and resuspended in 5 mM Hepes-KOH, 20 mM glucose, and 100 mM KCl at pH 7.2 to an OD600=0.05 and 200 μl were transferred to a microtiter plate for planktonic assays. For biofilm assay, 24 h formed P. aeruginosa biofilm in a 96-well microtiter plate were washed three times with sterile PBS. Afterwards P. aeruginosa biofilms were washed with 5 mM Hepes at pH 7.2 containing 20 mM glucose, and rinsed in 5 mM Hepes-KOH, 20 mM glucose, and 100 mM KCl at pH 7.2. In both cases, DiSC3(5) was added to a final concentration of 0.4 μM and changes in the fluorescence were continuously recorded after addition of peptides at 10 μM in a Victor3 plate reader. A maximum reference value for total depolarization is calculated for Triton X-100 at 10%. Alternatively, changes in the fluorescence were continuously recorded after addition of a serially diluted protein/peptides from 50 to 0.1 μM. The peptide concentration required to achieve half of total and total membrane depolarization after 40 min incubation time was estimated from nonlinear regression analysis as previously described (Torrent M. et al. 2010)

[5] = tested on: pre-established P. aeruginosa biofilm; experiment: Biofilm eradication assay, crystal violet staining; format: cell-based, Pseudomonas aeruginosa; conditions: 24 h formed biofilm; 4 h at 37° C.; 10% Triton X-100 as maximum reference
Procedure: Following, the biofilm eradication activity was determined (FIG. 1 and Table 6). […] Moreover, the biofilm eradication activity of all the tested reference peptides was well above the maximum concentration tested (50 μM), except for RN3(5-17P22-36) which was able to eradicate the biofilm close to 50 μM.
as §5
Biofilms were grown as above. Twenty-four hour formed P. aeruginosa biofilm was washed three times with sterile PBS, and rinsed with 10 mM sodium phosphate buffer pH 7.5. Each well was treated with increasing protein/peptide concentrations (from 0.01 to 50 μM) and incubated at 37° C. for 4 h. The biofilm eradication was then evaluated using the crystal violet staining technique (Stepanovic S. et al. 2000). The ability of the antimicrobial peptides to disperse and reduce the biofilm mass of preformed biofilms was calculated. The peptide concentration required to achieve total preformed biofilm eradication after 4 h incubation time was estimated. A maximum reference value was taken for Triton X-100 at 10%. The minimum biofilm eradication concentration (MBEC), defined as the protein/peptide concentration where the 99.9% of the biofilm mass is eradicated was estimated.

[6] = tested on: established P. aeruginosa biofilms; experiment: DiSC3(5) membrane depolarization assay on biofilm; format: cell-based, Pseudomonas aeruginosa; conditions: maximum percentage at final incubation time, 10% Triton X-100 reference
Procedure: as §6, §2

[7] = tested on: LPS (lipopolysaccharides) from P. aeruginosa; experiment: LPS binding assay, BODIPY TR cadaverine (BC) displacement; parameters: species or system Pseudomonas aeruginosa; conditions: 100% = total displacement of the dye; mean ± SEM
Procedure: Following, LPS binding affinity was monitored by a fluorometric assay which measures the competitive displacement of a cadaverine fluorescent probe (BC) by the protein and peptides. The half LPS binding affinity (ED50), defined as the AMP concentration needed to achieve half of BC displacement, and the total LPS binding affinity, expressed as a percentage, were determined (Table 4). Interaction with negatively charged surfaces of bacteria is the first step for cationic peptides to reach the bacterial membranes and exert their antimicrobial action.
LPS binding was assessed using the fluorescent probe BODIPY TR cadaverine (BC) as previously described (Pulido D. et al. Febs J 2013). BC binds strongly to native LPS, specifically recognizing the lipid A portion. When a protein that interacts with LPS is added, BC is displaced from the complex and its fluorescence is increased, decreasing its occupancy factor. LPS-binding assays were carried out in a 10 mM Hepes buffer at pH 7.5. The displacement assay was performed using a 96 well microtiter plate containing stirred mixture of either LPS (10 μg/mL) and BC (10 μM). Protein/peptides were serially diluted from 10 to 0.1 μM. Fluorescence measurements were performed on a Victor3 plate reader (Perkin Elmer, Waltham, Mass.). The protein/peptide concentration required to achieve half of total and total BC displacement was estimated from nonlinear regression analysis as previously described (Wood S. J. et al. 2004)

[8] = tested on: pre-established P. aeruginosa biofilm; experiment: Biofilm cell mortality, BacTiter-Glo luminescent assay; format: cell-based, Pseudomonas aeruginosa; conditions: 24 h formed biofilm; 4 h at 37° C.; 10% Triton X-100 as maximum reference; N.D. = not detected at 50 μM
Procedure: as §3, §4, §5

planktonic P. aeruginosa [9] = format: cell-based, Pseudomonas aeruginosa; conditions: planktonic P. aeruginosa; 4 h at 37° C.; mean ± SEM; N.D. = not detected at 50 μM; read-out: IC50 (50% bacterial viability)
Procedure: The microbial cell viability was then assayed using the BacTiter-Glo™ luminescent kit. […] No cell reduction was detected for the peptide GL-13 even for the maximum concentration assayed (50 μM).
as §3

Molecule	Permeabilization Mean % ± SEM [1] [%]	Permeabilization %max (planktonic P. aeruginosa [2]) [%]	mortality [3] [%]	Depolarization %max (planktonic P. aeruginosa [4]) [%]	Biofilm eradication (%max) [5] [%]	Depolarization Mean % ± SEM [6] [%]	LPS binding %max (percentage of maximum displacement) [7] [%]	Biofilm cell mortality (%max) [8]	IC50 (planktonic P. aeruginosa [9]) [nM]
CC[C@H](C)[C@H](NC(=O)[C@H](Cc1ccccc1)NC(=O)[C@@H](NC(=O)[C@H](Cc1ccccc1)NC(=O)[C@H](CCCNC(=N)N)NC(=O)[C@H](CCCCN)NC(=O)[C@H](CCCNC(=N)N)NC(=O)[C@H](CCCCN)NC(=O)[C@H](Cc1c[nH]c2ccccc12)NC(=O)[C@H](CC(C)C)NC(=O)[C@@H](NC(=O)[C@@H](N)Cc1ccc(O)cc1)C(C)C)[C@@H](C)CC)C(N)=O [WY-12, YVLWKRKRFIFI-NH2] (H-YVLWKRKRFIFI-NH2; N-terminus assumed)	18.91 ± 2.23	39.43 ± 1.19	39.7 ± 8.93	44.02 ± 4.01	38.36 ± 2.36	32.58 ± 1.87			
B1	39.4 ± 2.88	45.67 ± 2.29				46.11 ± 3.21	99.85 ± 9.51	~50% and 67.31 ± 0.79%	840 ± 30
